How the values were obtained:
[1] = test system: VEGF induced increases in intracellular calcium levels in HUVEC (human umbilical vein endothelial cells); test: VEGF Stimulated Ca++ Signal in vitro (FLIPR); assay type: cell-based; settings: VEGF 5 ng/mL; for IC50: 0.01 to 10.0 μM
How it was run: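 IC50 values derive from % inhibition of the VEGF (5 ng/mL) calcium response, taken as max-min fluorescence at 516 nm in Fluo-4-loaded HUVEC. Compounds (0.1% DMSO final) were added 30 min before stimulation, at 10 μM or across 0.01–10.0 μM.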

[2] = biological target: T1, cytoplasmic domain of the human VEGF receptor (VEGFR-2) (Homo sapiens, UniProt P35968); test: KDR Assay; assay type: biochemical; settings: His-VEGFR-2; 3.6 μM ATP
T1 construct: The cytoplasmic domain of the human VEGF receptor (VEGFR-2) was expressed as a Histidine-tagged fusion protein; Histidine tag
T1 sequence (P35968 786-1356): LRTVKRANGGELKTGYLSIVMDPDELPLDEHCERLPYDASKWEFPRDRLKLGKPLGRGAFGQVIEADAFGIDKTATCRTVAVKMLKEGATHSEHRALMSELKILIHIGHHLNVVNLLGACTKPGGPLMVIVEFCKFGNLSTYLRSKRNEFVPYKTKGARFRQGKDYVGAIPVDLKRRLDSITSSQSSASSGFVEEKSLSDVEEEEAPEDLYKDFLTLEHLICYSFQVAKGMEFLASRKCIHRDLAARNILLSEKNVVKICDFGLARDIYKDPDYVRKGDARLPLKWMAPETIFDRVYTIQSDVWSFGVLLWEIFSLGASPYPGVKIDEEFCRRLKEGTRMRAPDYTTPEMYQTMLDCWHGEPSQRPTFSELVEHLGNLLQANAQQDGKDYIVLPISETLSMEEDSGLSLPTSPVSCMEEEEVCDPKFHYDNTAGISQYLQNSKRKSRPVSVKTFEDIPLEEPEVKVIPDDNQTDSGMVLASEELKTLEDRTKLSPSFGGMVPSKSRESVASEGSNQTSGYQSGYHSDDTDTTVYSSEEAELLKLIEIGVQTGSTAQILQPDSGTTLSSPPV
How it was run: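 IC50 taken from blank-corrected OD492 curves of an anti-phosphotyrosine peroxidase ELISA. Reaction: 10 min, 25 °C, 3.6 μM ATP, 50 mM Hepes pH 7.4 with 20 mM MgCl2, 0.1 mM MnCl2 and 5% DMSO, on poly-Glu-Tyr-coated wells, started with insect-cell-expressed His-VEGFR-2 cytoplasmic domain.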

In the case of O=C1Nc2ccccc2C1=CNc1ccc(OCCCN2CCSCC2)cc1 [Example 225, 3-{[4-(3-Thiomorpholin-4-yl-propoxy)-phenylamino]-methylene}-1,3-dihydro-indol-2-one], the IC50 [1] is reported as 560 nM, the inhibition at 10 µM ([1]; Homo sapiens) is reported as 95.7% and the IC50 ([1]; Homo sapiens) is reported as at most 1000 nM. For the same compound, the IC50 [2] was 290 nM.

In the case of O=C1Nc2ccccc2C1=CNc1ccc(OCCCCN2CCSCC2)cc1 [Example 226, 3-{[4-(4-Thiomorpholin-4-yl-butoxy)-phenylamino]-methylene}-1,3-dihydro-indol-2-one], the IC50 [1] is reported as 700 nM, the inhibition at 10 µM ([1]; Homo sapiens) is reported as 98% and the IC50 ([1]; Homo sapiens) is reported as at most 1000 nM. For the same compound, the IC50 [2] was 280 nM.

Work on Cc1cccc2c1C(=CNc1ccc(N3CCOCC3)cc1)C(=O)N2 [Example 227, 4-Methyl-3-[(4-morpholin-4-yl-phenylamino)-methylene]-1,3-dihydro-indol-2-one] yielded an inhibition at 10 µM ([1]; Homo sapiens) of 85.9% and an IC50 [2] of 50 nM.

O=C1Nc2cc(F)ccc2C1=CNc1ccc(N2CCOCC2)cc1 [Example 228, 6-Fluoro-3-[(4-morpholin-4-yl-phenylamino)-methylene]-1,3-dihydro-indol-2-one] showed an inhibition at 10 µM ([1]; Homo sapiens) of 97.2% and an IC50 [2] of 80 nM.

Work on CN1CCN(c2ccc(NC=C3C(=O)Nc4cc(F)ccc43)cc2)CC1 [Example 230, 6-Fluoro-3-{[4-(4-methyl-piperazin-1-yl)-phenylamino]-methylene}-1,3-dihydro-indol-2-one] yielded an inhibition at 10 µM ([1]; Homo sapiens) of 96.4% and an IC50 [2] of 80 nM.

Compound CCN(CC)CCCOc1ccc(NC=C2C(=O)Nc3ccc(Cl)cc32)cc1 [Example 232, 5-Chloro-3-{[4-(3-diethylamino-propoxy)-phenylamino]-methylene}-1,3-dihydro-indol-2-one] has an IC50 [1] of 860 nM, an inhibition at 10 µM ([1]; Homo sapiens) of 97.1% and an IC50 ([1]; Homo sapiens) of at most 1000 nM. It also gave an IC50 [2] of 160 nM.

CCN(CC)CCCOc1ccc(NC=C2C(=O)Nc3ccc(F)cc32)cc1 [Example 233, 3-{[4-(3-Diethylamino-propoxy)-phenylamino]-methylene}-5-fluoro-1,3-dihydro-indol-2-one] was tested, and the inhibition at 10 µM ([1]; Homo sapiens) was 96.9% and the IC50 [2] was 190 nM.

In the case of O=C1Nc2ccc([N+](=O)[O-])cc2C1=CNc1ccc(N2CCOCC2)cc1 [Example 236, 3-[(4-Morpholin-4-yl-phenylamino)-methylene]-5-nitro-1,3-dihydro-indol-2-one], the inhibition at 10 µM ([1]; Homo sapiens) is reported as 7.2% and the IC50 [2] is reported as 970 nM.

With N#Cc1ccc2c(c1)C(=CNc1ccc(N3CCOCC3)cc1)C(=O)N2 [Example 237, 3-[(4-Morpholin-4-yl-phenylamino)-methylene]-2-oxo-2 ,3-dihydro-1 h-indole-5-carbonitrile] the inhibition at 10 µM ([1]; Homo sapiens) was 36.4% and the IC50 [2] was 710 nM.

O=C1Nc2ccc(F)cc2C1=CNc1ccc(OCCCN2CCCCC2)cc1 [Example 240, 5-Fluoro-3-{[4-(3-piperidin-1-yl-propoxy)-phenylamino]-methylene}-1,3-dihydro-indol-2-one] was tested, and the inhibition at 10 µM ([1]; Homo sapiens) was 98.3% and the IC50 [2] was 230 nM.

Compound O=C1Nc2ccc(Cl)cc2C1=CNc1ccc(OCCCN2CCCCC2)cc1 [Example 241, 5-Chloro-3-{[4-(3-piperidin-1-yl-propoxy)-phenylamino]-methylene}-1,3-dihydro-indol-2-one] has an inhibition at 10 µM ([1]; Homo sapiens) of 95.8%, an IC50 ([1]; Homo sapiens) of 1010 nM and an IC50 [2] of 130 nM.

For Cc1cccc2c1C(=CNc1ccc(NCCN3CCOCC3)cc1)C(=O)N2 [Example 242, 4-Methyl-3-{[4-(2-morpholin-4-yl-ethylamino)-phenylamino]-methylene}-1,3-dihydro-indol-2-one], the inhibition at 10 µM ([1]; Homo sapiens) was 95.8% and the IC50 [2] was 70 nM.

With O=C1Nc2ccc(F)cc2C1=CNc1ccc(NCCN2CCOCC2)cc1 [Example 244, 5-Fluoro-3-{[4-(2-morpholin-4-yl-ethylamino)-phenylamino]-methylene}-1,3-dihydro-indol-2-one] the inhibition at 10 µM ([1]; Homo sapiens) was 96% and the IC50 [2] was 190 nM.

For O=C1Nc2ccc(Cl)cc2C1=CNc1ccc(NCCN2CCOCC2)cc1 [Example 245, 5-Chloro-3-{[4-(2-morpholin-4-yl-ethylamino)-phenylamino]-methylene}-1,3-dihydro-indol-2-one], the inhibition at 10 µM ([1]; Homo sapiens) was 95.5% and the IC50 [2] was 140 nM.

CCN(CC)CCCOc1ccc(NC=C2C(=O)Nc3ccccc32)cc1F [Example 248, 3-{[4-(3-Diethylamino-propoxy)-3-fluoro-phenylamino]-methylene}-1,3-dihydro-indol-2-one] was tested, and the IC50 [1] was 710 nM, the IC50 ([1]; Homo sapiens) was at most 1000 nM and the IC50 [2] was 630 nM.

In the case of O=C1Nc2cccc(F)c2C1=CNc1ccc(OCCCN2CCCCC2)cc1 [Example 255, 4-Fluoro-3-{[4-(3-piperidin-1-yl-propoxy)-phenylamino]-methylene}-1,3-dihydro-indol-2-one], the IC50 ([1]; Homo sapiens) is reported as 1300 nM and the IC50 [2] is reported as 440 nM.

Cc1cccc2c1C(=CNc1ccc(CN3CCCCC3)cc1)C(=O)N2 [Example 256, 4-Methyl-3-[(4-piperidin-1-ylmethyl-phenylamino)-methylene]-1,3-dihydro-indol-2-one] showed an IC50 [1] of 670 nM, an IC50 ([1]; Homo sapiens) of at most 1000 nM and an IC50 [2] of 190 nM.

Work on O=C1Nc2cccc(F)c2C1=CNc1ccc(CN2CCCCC2)cc1 [Example 257, 4-Fluoro-3-[(4-piperidin-1-ylmethyl-phenylamino)-methylene]-1,3-dihydro-indol-2-one] yielded an IC50 ([1]; Homo sapiens) of 1630 nM and an IC50 [2] of 510 nM.

O=C1Nc2ccc(F)cc2C1=CNc1ccc(CN2CCCCC2)cc1 [Example 258, 5-Fluoro-3-[(4-piperidin-1-ylmethyl-phenylamino)-methylene]-1,3-dihydro-indol-2-one] showed an IC50 [1] of 720 nM, an IC50 ([1]; Homo sapiens) of at most 1000 nM and an IC50 [2] of 560 nM.

For O=C1Nc2ccc(Cl)cc2C1=CNc1ccc(CN2CCCCC2)cc1 [Example 260, 5-Chloro-3-[(4-piperidin-1-ylmethyl-phenylamino)-methylene]-1,3-dihydro-indol-2-one], the IC50 [1] was 880 nM, the IC50 ([1]; Homo sapiens) was at most 1000 nM and the IC50 [2] was 300 nM.

Work on O=C1Nc2cccc(F)c2C1=CNc1ccc(OCCN2CCCCC2)cc1 [Example 261, 4-Fluoro-3-{[4-(2-piperidin-1-yl-ethoxy)-phenylamino]-methylene}-1,3-dihydro-indol-2-one] yielded an IC50 ([1]; Homo sapiens) of 1060 nM and an IC50 [2] of 390 nM.

O=C1Nc2ccc(Cl)cc2C1=CNc1ccc(OCCN2CCCCC2)cc1 [Example 262, 5-Chloro-3-{[4-(2-piperidin-1-yl-ethoxy)-phenylamino]-methylene}-1,3-dihydro-indol-2-one] showed an IC50 [1] of 870 nM, an IC50 ([1]; Homo sapiens) of at most 1000 nM and an IC50 [2] of 210 nM.

CCN(CC)CCOc1ccc(NC=C2C(=O)Nc3ccccc32)cc1 [Example 265, 3-{[4-(2-Diethylamino-ethoxy)-phenylamino]-methylene}-1,3-dihydro-indol-2-one] was tested, and the IC50 [1] was 530 nM, the IC50 ([1]; Homo sapiens) was at most 1000 nM and the IC50 [2] was 610 nM.

For CCN(CC)CCCOc1ccc(NC=C2C(=O)Nc3cccc(F)c32)cc1F [Example 267, 3-{[4-(3-Diethylamino-propoxy)-3-fluoro-phenylamino]-methylene}-4-fluoro-1,3-dihydro-indol-2-one], the IC50 ([1]; Homo sapiens) was 1420 nM and the IC50 [2] was 230 nM.

Compound COc1cccc(-c2ccc3c(c2)NC(=O)C3=CNc2ccc(N3CCN(C)CC3)cc2)c1 [Example 268, 6-(3-Methoxy-phenyl)-3-{[4-(4-methyl-piperazin-1-yl)-phenylamino]-methylene}-1,3-dihydro-indol-2-one] has an IC50 ([1]; Homo sapiens) of at least 10000 nM and an IC50 [2] of 80 nM.

Work on COc1cccc(-c2ccc3c(c2)NC(=O)C3=CNc2ccc(N3CCOCC3)cc2)c1 [Example 269, 6-(3-Methoxy-phenyl)-3-{[4-morpholin-4-yl-phenylamino)-methylene]-1,3-dihydro-indol-2-one] yielded an IC50 ([1]; Homo sapiens) of at least 10000 nM and an IC50 [2] of 1680 nM.

For O=C1Nc2cccc(F)c2C1=CNc1ccc(OCCN2CCCC2)cc1 [Example 273, 4-Fluoro-3-{[4-(2-pyrrolidin-1-yl-ethoxy)-phenylamino]-methylene}-1,3-dihydro-indol-2-one], the IC50 ([1]; Homo sapiens) was 1070 nM and the IC50 [2] was 330 nM.

O=C1Nc2ccc(Cl)cc2C1=CNc1ccc(OCCN2CCCC2)cc1 [Example 275, 5-Chloro-3-{[4-(2-pyrrolidin-1-yl-ethoxy)-phenylamino]-methylene}-1,3-dihydro-indol-2-one] showed an IC50 [1] of 620 nM, an IC50 ([1]; Homo sapiens) of at most 1000 nM and an IC50 [2] of 130 nM.

COc1cccc(-c2ccc3c(c2)NC(=O)C3=CNc2ccc(OCCCN3CCCCC3)cc2)c1 [Example 276, 6-(3-Methoxy-phenyl)-3-{[4-(3-piperidin-1-yl-propoxy)-phenylamino]-methylene}-1,3-dihydro-indol-2-one] was tested, and the IC50 ([1]; Homo sapiens) was 8810 nM and the IC50 [2] was 220 nM.

With CCN(CC)CCCOc1ccc(NC=C2C(=O)Nc3cc(-c4cccc(OC)c4)ccc32)cc1 [Example 277, 3-{[4-(3-Diethylamino-propoxy)-phenylamino]-methylene}-6-(3-Methoxy-phenyl)-1,3-dihydro-indol-2-one] the IC50 ([1]; Homo sapiens) was at least 10000 nM and the IC50 [2] was 250 nM.

CN1CCCC(COc2ccc(NC=C3C(=O)Nc4cccc(F)c43)cc2)C1 (centres unmarked) [Example 281, 4-Fluoro-3-{[4-(1-methyl-piperidin-3-ylmethoxy)-phenylamino]-methylene}-1,3-dihydro-indol-2-one] gave an IC50 [1] of 730 nM, an IC50 ([1]; Homo sapiens) of at most 1000 nM and an IC50 [2] of 320 nM.

CN1CCCC(COc2ccc(NC=C3C(=O)Nc4ccc(Cl)cc43)cc2)C1 (centres unmarked) [Example 283, 5-Chloro-3-{[4-(1-methyl-piperidin-3-ylmethoxy)-phenylamino]-methylene}-1,3-dihydro-indol-2-one] was tested, and the IC50 [1] was 940 nM, the IC50 ([1]; Homo sapiens) was at most 1000 nM and the IC50 [2] was 150 nM.

Source: patent publication US20030225152A1, “3-(Arylamino)methylene-1, 3-dihydro-2h-indol-2-ones as kinase inhibitors” (priority 2001, published 2003)
